{
  "source": "patent US20240075087A1",
  "about": "“COMPOSITIONS AND METHODS COMPRISING HEMP EXTRACT FOR THE TREATMENT OF ANIMALS IN NEED” (Portland Technology Holdings LLC, priority 2021, published 2024)",
  "key": {"[1]": {"target": "CYP3A12 (Canis lupus familiaris, UniProt P24463)", "sequence (P24463 whole entry)": "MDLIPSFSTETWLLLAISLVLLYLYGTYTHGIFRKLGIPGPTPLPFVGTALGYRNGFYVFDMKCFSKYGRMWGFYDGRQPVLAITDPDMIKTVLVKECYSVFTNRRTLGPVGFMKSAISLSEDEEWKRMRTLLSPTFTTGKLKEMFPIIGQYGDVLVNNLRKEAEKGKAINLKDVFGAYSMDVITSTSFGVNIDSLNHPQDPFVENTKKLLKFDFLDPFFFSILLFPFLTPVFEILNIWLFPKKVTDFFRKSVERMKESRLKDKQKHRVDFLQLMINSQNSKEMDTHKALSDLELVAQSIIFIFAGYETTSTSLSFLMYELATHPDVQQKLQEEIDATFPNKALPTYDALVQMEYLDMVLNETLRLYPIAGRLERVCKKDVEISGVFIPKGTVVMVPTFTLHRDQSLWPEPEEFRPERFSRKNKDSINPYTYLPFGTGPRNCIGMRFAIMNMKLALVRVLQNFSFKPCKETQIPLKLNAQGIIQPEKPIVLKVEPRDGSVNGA", "test": "CYP3A12 activity inhibition in pooled dog liver microsomes", "experimental": "(§1) Inhibition potency (i.e. IC50) is determined by measuring the decrement in metabolism of P450-specific marker activities in pooled dog liver microsomes with increasing concentrations of CBD, CBDA, and hemp extracts. P450-specific markers include bupropion 6-hydroxylation (CYP2B11), dextromethorphan 0-demethylation (CYP2D15) and omeprazole sulfoxidation (CYP3A12). IC50 values are determined both with and without preincubation of liver microsomes with potential inhibitor to evaluate whether there is mechanism-based time-dependent inhibition.\n(§2) The following parameters are assessed: (1) the rates of CBD and CBDA metabolism by dog liver microsomes and by 11 recombinant canine P450 enzymes; (2) the predicted percent contribution of each P450 to total CBD and CBDA metabolism in dog liver; and (3) IC50 values for inhibition of CYP2B11, CYP2D15 and CYP3A12 metabolism in dog liver, both with and without inhibitor preincubation.\n(§3) FIGS. 13-15 show activity assays for CYP3A12 (FIGS. 13A and 13B), CYP2B11 (FIGS. 14A and 14B), and CYP2D15 (FIGS. 15A and 15B). Assays using either no preincubation (FIGS. 13A, 14A, and 15A) or 20 minutes of preincubation (FIGS. 13B, 14B, and 15B) were performed."}, "[2]": {"target": "T1, CYP2B11 (Canis lupus familiaris, UniProt P24460)", "T1 sequence (P24460 1-494)": "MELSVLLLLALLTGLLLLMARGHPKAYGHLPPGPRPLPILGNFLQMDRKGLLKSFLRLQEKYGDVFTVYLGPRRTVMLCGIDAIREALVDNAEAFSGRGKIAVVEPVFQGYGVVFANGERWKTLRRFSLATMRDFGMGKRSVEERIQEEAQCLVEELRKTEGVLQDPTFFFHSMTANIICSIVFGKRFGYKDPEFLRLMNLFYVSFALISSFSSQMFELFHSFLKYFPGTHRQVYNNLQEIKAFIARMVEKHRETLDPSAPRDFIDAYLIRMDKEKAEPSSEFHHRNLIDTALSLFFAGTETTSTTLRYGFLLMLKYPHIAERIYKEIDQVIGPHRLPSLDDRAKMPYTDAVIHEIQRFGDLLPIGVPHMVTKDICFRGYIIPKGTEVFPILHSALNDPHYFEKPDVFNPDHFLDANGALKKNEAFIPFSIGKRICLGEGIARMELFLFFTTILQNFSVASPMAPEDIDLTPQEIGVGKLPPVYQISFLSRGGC", "test": "CYP2B11 activity inhibition in pooled dog liver microsomes", "experimental": "as §1, §2, §3"}, "[3]": {"test_system": "CMT12 cell line", "test": "Annexin V-FITC apoptosis assay, CMT12", "type": "cell-based, canine", "settings": "15 μg/mL CBD, VC 10.9±2.0%", "experimental": "Apoptosis after 4 and 8 hours treatment is measured using Annexin-V staining (Invitrogen Annexin V-FITC staining kit, Carlsbad, California). Briefly, cells are detached with Accumax (Innovative Cell Technologies, San Diego, California), collected and centrifuged for 10 m at 1000 g at 4° C. The pellet is washed once with PBS before resuspension in Annexin Binding Buffer (ABB; 10 mM HEPES, 140 mM NaCl, 2.5 mM CaCl2, pH 7.4) at a density of approximately 1×10^6 cell/mL. […] After the incubation, ABB is added to the cell suspension and kept on ice until fluorescence is measured with the BD FACScalibur flow cytometer using an argon laser (BD Biosciences, Ashland, Oregon). Ten thousand events are collected per sample. Analysis is performed with the FlowJo software (Version 10.7.1. Becton, Dickinson, Ashland, Oregon) by first gating based on the forward- and side-scatter characteristics for each cell line followed by Annexin V-FITC positive cells. Negative fluorescence controls are unstained cells. Three independent replicates are examined for each treatment."}, "[4]": {"test": "Single-dose oral pharmacokinetics of CBD in healthy cats", "type": "in vivo", "settings": "serum, single oral dose 2 mg/kg total CBD/CBDA", "experimental": "The single-dose oral pharmacokinetics of CBD and an assessment of safety and adverse effects during 12-week administration using a hemp-based product in healthy dogs and cats were determined in this study. […] More details about this study can be found in “Deabold, K. A.; Schwark, W. S.; Wolf, L.; Wakshlag, J. J., Single Dose Pharmacokinetics and Preliminary Safety Assessment with Use of CBD-Rich Hemp Nutraceutical in Healthy Dogs and Cats, Animals 2019, 9, 832, DOI 10.3390/ani9100832,” which is incorporated herein by reference in its entirety."}, "[5]": {"test_system": "canine primary dermal fibroblasts (CDF)", "test": "Trypan blue exclusion assay, dermal fibroblasts", "type": "cell-based", "settings": "48 hours, vehicle control 16±3%", "experimental": "The trypan blue exclusion assay is performed on canine primary dermal fibroblasts (CDF) because of the slow rate of proliferation and low metabolic activity of these normal canine cells, precluding productive MTT assays. The effects of CBD treatments are compared with the results obtained on the 17-71, CMT12 and D17 cell lines for comparative purposes. For the CDF cells, applied cell extracellular matrix (ABM) is applied overnight to 24-well tissue culture-treated plates (Applied Biological Materials [ABM], Richmond, BC, Canada). For all cell lines, cells are plated at a density of 5×10^3 cells per well and incubated until 60% confluent before treatment with methanol vehicle control, 3.75, 7.5, and 15 μg/mL of CBD to cells for 48 hours. Cells are then trypsinized, collected and centrifuged at 1900 g for 10 minutes. With the exception of the 17-71 cell line, cells are detached with Accumax (Invitrogen, Carlsbad, California). The cell pellet is resuspended in 0.1% trypan blue (Sigma Aldrich, St Louis, Missouri) in PBS solution, loaded on a Cell Countess disposable cell counting slide with automatic counting of all positively stained cells in the Countess II Cell Counter under identical settings for each cell line (Invitrogen; ThermoFisher Scientific, Carlsbad, California) using the same parameters for each cell line. All treatments are performed in triplicate and the percent of viable cells are averaged."}},
  "data": [
    {"molecule": "C=C(C)[C@@H]1CCC(C)=C[C@H]1c1c(O)cc(CCCCC)cc1O", "note": "[CBD, cannabidiol]", "values": [
      {"measurement": "IC50", "setting": "[1]", "value": "< 1000", "unit": "nM"},
      {"measurement": "time-dependent inhibition (TDI)", "setting": "[1]; CYP3A12, no preincubation vs 20 min preincubation, 10 μM", "value": "showed time-dependent inhibition (TDI)"},
      {"measurement": "IC50", "setting": "[2]", "value": "< 1000", "unit": "nM"},
      {"measurement": "time-dependent inhibition (TDI)", "setting": "[2]; CYP2B11, no preincubation vs 20 min preincubation, 10 μM", "value": "showed time-dependent inhibition (TDI)"},
      {"measurement": "Annexin V positive staining cells", "setting": "[3]; 4 hours", "value": "15.7±2.2", "unit": "%"},
      {"measurement": "Annexin V positive staining cells", "setting": "[3]; 8 hours", "value": "21.5±2.5", "unit": "%"},
      {"measurement": "AUC", "setting": "[4]; read-out: area under the curve (AUC)", "value": 164, "unit": "ng·h/mL"},
      {"measurement": "Cmax", "setting": "[4]; read-out: mean maximum CBD concentration (Cmax)", "value": 43, "unit": "ng/mL"},
      {"measurement": "Tmax", "setting": "[4]; read-out: time to maximal concentration (Tmax)", "value": 2, "unit": "h"},
      {"measurement": "percent trypan blue positive cells", "setting": "[5]; 3.75 μg/mL CBD", "value": "32±5", "unit": "%"},
      {"measurement": "percent trypan blue positive cells", "setting": "[5]; 7.5 μg/mL CBD", "value": "58±7", "unit": "%"},
      {"measurement": "percent trypan blue positive cells", "setting": "[5]; 15 μg/mL CBD", "value": "77±12", "unit": "%"}
    ]}
  ]
}
